Laboratory results published in patent publication US6346544B2, “Desmethyl tocopherols for protecting cardiovascular tissue” (Oklahoma Medical Research Foundation, priority 2000, dated 2002).

Tests used:
[1] = plasma concentrations of tocopherols and 5-NO2-γ-tocopherol in volunteers; format: in vivo, human; conditions: mean ± SEM
From the text: Smoking is recognized as a major contributing factor to heart disease and γ-T reportedly decreases more than α-T in smokers. Hypertension is also a strong risk factor for heart disease. […] Seven subjects indicated a chronic hypertensive condition. As outlined in Table I, γ-tocopherol tended to decrease in hypertensive subjects while nitration products tended to increase in both smokers and hypertensive subjects. This was the trend regardless of whether the tocopherol concentrations were normalized to plasma triglycerides (Table I).

αKGDH [2] = test: αKGDH protection against SIN-1 nitrative stress in isolated mitochondria in vitro; format: biochemical, rat
Description: FIG. 3 is a graph showing rat brain mitochondria exposed to 0.4 mM SIN-1 for 1 H after addition of tocopherol. (•)α-tocopherol; (▪)γ-tocopherol. The scale bars labeled [α]norm and [Y]norm indicate the normal endogenous quantities of α-tocopherol and γ-tocopherol, respectively, in human brain.
αKGDH is a rate-limiting enzyme of mitochondrial energy production which is diminished in conditions of vascular ischemia (53-58); augmentation of the enzyme with α-ketoglutarate has been found beneficial and α-ketoglutarate is now included as a component in cardioplegia fluid to improve recovery after heart surgery (59). We undertook to determine whether γT protects αKGDH against nitrative stress in vitro. Mitochondria were isolated from adult rat brain then sonicated briefly in the presence of either αT or γT, or an ethanol vehicle. Mitochondria were then exposed to SIN-1, which generates NO and superoxide simultaneously at a known rate (7). Combination of NO and superoxide yields ONOO^−. in situ (discussed above).

[3] = liposomes exposed to ONOO−; cited from earlier work
platelets = test: platelet aggregation in vitro (PRP, aggregometer); format: cell-based, human; conditions: for Platelet Aggregation (% maximum): 500 μM α-tocopherol or 50 μM γ-tocopherol, 1 H preincubation
Description: […] inhibits platelet aggregation in vitro and in vivo, apparently through antagonism of protein kinase C (PKC) (60-63). Concentrations of αT necessary to inhibit aggregation in vitro are on the order of 500 μM (60-63), or approximately 10-fold higher than achieved in vivo. The concentration difference between in vitro and in vivo efficacy has been rationalized on the basis of incomplete tocopherol incorporation into membranes during in vitro incubation (63). Nonetheless, subjects supplemented with oral αT have diminished platelet aggregation (63). We therefore sought to investigate the ability of γ-tocopherol to inhibit platelet aggregation. PRP was obtained from two volunteers. Platelets were stimulated to aggregate with ADP, thrombin receptor activating peptide (TRAP) or the PKC agonist phorbol myristyl acetate (PMA) and aggregation was measured using a 4-channel clinical aggregometer. Specific platelet samples were preincubated with vehicle, αT, γT or 5-NO2-γ-tocopherol for 1 H prior to stimulation. Tocopherol concentrations were set at 10-fold excess to average PRP levels based on the precedent of previous in vitro aggregation experiments that used αT as an inhibitor (60-63).

[4] = cited from earlier work
[5] = tocopherol-depleted rats fed two weeks after iron-dextran; cited from earlier work
[6] = test system: ECV304 human endothelial cells; conditions: 10 μM α-T, 10 μM γ-T or 5 μM of each; 19 hours preincubation; 5 mM SIN-1; 24 hours
Description: Cultured ECV304 human endothelial cells were exposed to SIN-1 in the presence of 10 μM α-T, 10 μM γ-T or 5 μM of each (FIG. 5). Tocopherols were incubated with the cells for 19 hours prior to addition of SIN-1. Viability was assayed 24 hours later using a standard tetrazolium (MTT) reduction assay.

[7] = 100 mg/kg/day, 10 days, cited from earlier work
[8] = human plasma γT relative to αT; format: in vivo
From the text: Chemistry of tocopherol reaction with oxidizing agents. γ-Tocopherol is a natural product (a desmethyl tocopherol) of plant origin, present in many vegetable oils, especially soybean oil (1-2). γ-Tocopherol is normally taken into the body through consumption of foodstuffs. Human plasma γT concentration is variously reported as 5-30% of αT (3). The γTαT ratio varies markedly among individuals; plasma γT/αT proportionalities may be as low as 0.2% and as high as 30% (inventors' observations). Both αT and γT are absorbed equally well by the gut, but γT is packaged into lipoproteins less effectively than αT (4). For this reason, αT supplementation decreases systemic γT concentration (3-4).
γ-Tocopherol in human biology and cardiovascular disease. Relative to αT, a dearth of epidemiological data exists for γT. Human plasma γT concentration is variously reported as between 5-30% that of αT (41). In platelet-poor plasma, we find that 7% is very close to the correct value in young healthy subjects. The γT/αT ratio varies markedly among individuals; we have observed plasma γT/αT proportionalities as low as 0.2% and as high as 30%. γT is now a major tocopherol in the US diet, due to the high intake of soybean and vegetable oils that are abundant sources of γT (40). Both αT and γT are absorbed equally well by the gut, but γT is packaged into lipoproteins less effectively than αT (39). For this reason, αT supplementation decreases systemic γT concentration (41-42). δ-Tocopherol, β-tocopherol and tocol (other demethylated tocopherol homologs) exist in human plasma at approximately 1:10 ratios relative to γT (41). Detailed demographic data regarding plasma and tissue levels of desmethylated tocopherols and their oxidation products have never been published. While extensive data has been collected on α-tocopherol as a possibly beneficial molecule in cardiovascular disease, very little data has been collected on γT.

αKGDH [9] = test: heart αKGDH activity after tocopherol supplementation, with or without LPS challenge; format: in vivo, rat
Description: Rats were injected with 15 mg of tocopherol over the first 1 month of life; specific groups were then challenged with a septic dose of LPS and heart αKGDH activity was assayed 24 H later. *p<0.1 relative to vehicle; †p<0.05 relative to vehicle. N=5/group.
Rat pups were injected intraperitoneally (I.P.) with αT or γT in an olive oil vehicle every other day for 30 days beginning 2 days after birth; control animals received vehicle only. […] A total of 15 mg tocopherol was delivered to each animal over the 30 day period; animal weight at the end of the period was approximately 90 g for all three groups. One half of each animal group was injected with a septic dose of LPS (2.5 mg/kg, I.P). After 24 H, animals were killed and organs collected. αKGDH was assayed in heart tissue and tocopherols were measured by HPLC-ECD/PDA.

[10] = variously reported; cited from earlier work
[11] = rat, in vivo, 30 days
Description: Rat pups were injected intraperitoneally (I.P.) with αT or γT in an olive oil vehicle every other day for 30 days beginning 2 days after birth; control animals received vehicle only. Olive oil was chosen as a vehicle because of the low tocopherol content in this particular vegetable oil. […] One half of each animal group was injected with a septic dose of LPS (2.5 mg/kg, I.P). After 24 H, animals were killed and organs collected. αKGDH was assayed in heart tissue and tocopherols were measured by HPLC-ECD/PDA.

C3H/10T1/2 fibroblasts = conditions: methylcholanthrene-treated C3H/10T1/2 fibroblasts; cited from earlier work
[12] = rat brain mitochondria, 400 μM SIN-1, one hour

## Cc1c(C)c2c(c([N+](=O)[O-])c1O)CCC(C)(CCCC(C)CCCC(C)CCCC(C)C)O2 (stereo not drawn) [5-NO2-γ-tocopherol, 5-nitro-γ-tocopherol]
[1]; hypertensives, N = 7
  plasma concentration: 20.0 ± 3.7 ng/mL plasma
  plasma concentration normalized to triglyceride: 34.9 ± 10.9 ng/mg triglyceride
[1]; population, N = 54
  plasma concentration: 11.3 ± 1.6 ng/mL plasma
  plasma concentration normalized to triglyceride: 14.0 ± 2.5 ng/mg triglyceride
[1]; smokers, N = 7
  plasma concentration: 20.0 ± 3.3 ng/mL plasma
  plasma concentration normalized to triglyceride: 23.5 ± 7.2 ng/mg triglyceride

## Nc1c[n+](N2CCOCC2)no1 [SIN-1, reference compound]
αKGDH [2]; 400 μM SIN-1, one hour, rat brain mitochondria
  diminution of αKGDH activity: approximately 50%

## Cc1c(O)cc2c(c1C)O[C@](C)(CCC[C@H](C)CCC[C@H](C)CCCC(C)C)CC2 [γ-tocopherol]
[3]
  effectiveness at inhibiting lipid hydroperoxide formation relative to αT: twice as effective
platelets; ADP 20 μM, Subject 1
  Platelet Aggregation (% maximum): 117 % maximum
platelets; ADP 20 μM, Subject 2
  Platelet Aggregation (% maximum): 90 % maximum
platelets; PMA 200 nM, Subject 1
  Platelet Aggregation (% maximum): 57 % maximum
platelets; PMA 200 nM, Subject 2
  Platelet Aggregation (% maximum): 29 % maximum
platelets; TRAP 20 μM, Subject 1
  Platelet Aggregation (% maximum): 73 % maximum
platelets; TRAP 20 μM, Subject 2
  Platelet Aggregation (% maximum): 88 % maximum
platelets; TRAP or PMA as agonist
  ability to inhibit PKC-linked platelet aggregation: similarly efficacious to αT
[4]; 100 mg/kg/day for 10 days, 29% FeCl3 patch
  delay/increase of time to occlusive thrombus: 65%
[4]; 100 mg/kg/day for 10 days
  inhibition of platelet aggregation kinetics, efficacy relative to αT supplementation: 2 fold
[4]; rat, in vivo
  potency relative to αT at inhibition of thrombogenic correlates, in reference to plasma tocopherol concentrations: 20-30 times
  superoxide dismutase activity in the aortas compared to αT treated group: increased significantly
αKGDH [2]; 400 μM SIN-1, one hour
  concentration offering as much αKGDH protection as 1-10 μM αT: 50 to 100 nM
αKGDH [2]; all concentrations tested
  αKGDH protection in side-by-side comparison: more protective than αT
αKGDH [2]; concentrations near 100 nM, 400 μM SIN-1
  αKGDH protection relative to corresponding concentration of αT: approximately 5 times
αKGDH [2]; [12]
  maximal αKGDH protection relative to αT: approximately 2.5 times
  tocopherol concentration of maximal αKGDH protection: 1 µM
[5]
  effectiveness at inhibiting systemic lipid oxidation relative to αT: approximately 35%
[6]
  effect on SIN-1 toxicity (MTT viability): promoted viability somewhat
[7]; own supplementation
  increase of plasma level above baseline: 6 fold
[7]; γT supplemented rats
  plasma γT concentration as % of the αT concentration: ≤ 10%
[8]; inventors' observations
  highest observed plasma γT/αT proportionality: 30%
  lowest observed plasma γT/αT proportionality: 0.2%
[8]; platelet-poor plasma, young healthy subjects
  plasma γT concentration as % of αT: ~7%
αKGDH [9]; LPS 2.5 mg/kg I.P., 24 H
  heart αKGDH activity after LPS challenge, ranking among groups: highest heart αKGDH activity
αKGDH [9]; animals not subjected to LPS stress, 15 mg tocopherol I.P. over 30 days
  increase of mean heart αKGDH activity: 40%
[10]
  human plasma γT concentration as % of αT: 5-30%
[1]; hypertensives, N = 7
  plasma concentration: 0.463 ± 0.165 μg/mL plasma
  plasma concentration normalized to triglyceride: 0.606 ± 0.153 μg/mg triglyceride
[1]; population, N = 54
  plasma concentration: 0.713 ± 0.067 μg/mL plasma
  plasma concentration normalized to triglyceride: 0.813 ± 0.088 μg/mg triglyceride
[1]; smokers, N = 7
  plasma concentration: 0.680 ± 0.153 μg/mL plasma
  plasma concentration normalized to triglyceride: 0.810 ± 0.213 μg/mg triglyceride
[11]
  heart tissue tocopherol concentration, controls: 1.8±0.4 ng/mg protein
C3H/10T1/2 fibroblasts
  effectiveness at inhibiting neoplastic transformation relative to αT: 4 fold
